This is an account of results in ChEMBL document CHEMBL4002629, “Design, synthesis and biological evaluation of novel 3-substituted 4-anilino-coumarin derivatives as antitumor agents” (Bioorg Med Chem Lett, 2017).

Bounds are passed on as bounds.

One experiment relates to MCF7. Put plainly: Antiproliferative activity against human MCF7 cells after 48 hrs by MTT assay. The following applies: MCF7, 48 h. The format is functional, cell-based.
A further experiment concerns HepG2. Put plainly: Antiproliferative activity against human HepG2 cells after 48 hrs by MTT assay. In kind it is functional, cell-based. The following applies: HepG2, 48 h. (In general: Tetrazolium assays rely on reduction of a dye to a coloured formazan, in cell work by metabolically active cells.)
The next experiment deals with HCT-116. Put plainly: Antiproliferative activity against human HCT116 cells after 48 hrs by MTT assay. The format is functional, cell-based. The following applies: HCT-116, 48 h.
A further experiment deals with PANC-1. In words: Antiproliferative activity against human PANC1 cells after 48 hrs by MTT assay. The following applies: PANC-1, 48 h. The format is functional, cell-based.
A further experiment concerns HUVEC. Put plainly: Antiproliferative activity against HUVEC after 48 hrs by MTT assay. The format is cell-based. As to conditions: Homo sapiens.
Experiment [1] can be described thus: Selectivity index, ratio of IC50 for HUVEC to IC50 for human MCF7 cells.
A short description of experiment [2]: Selectivity index, ratio of IC50 for HUVEC to IC50 for human HepG2 cells.
Experiment [3] in a line: Selectivity index, ratio of IC50 for HUVEC to IC50 for human HCT116 cells.
Experiment [4] in a line: Selectivity index, ratio of IC50 for HUVEC to IC50 for human PANC1 cells.

In general, IC50 refers to the point on the concentration scale where inhibition reaches its midpoint. A lower IC50 goes with greater potency in that assay. On to `COc1ccc(Nc2c(-c3ccc(OC)cc3)c(=O)oc3cc(O)ccc23)cc1`, for which the IC50 with MCF7 is above 100 µM; with HepG2, 78.8 µM.
In the case of `COc1ccc(Nc2c(C(=O)C(F)(F)F)c(=O)oc3cc(OC)ccc23)cc1`, the IC50 was 55.7 µM in the experiment on MCF7, 38.4 µM in the experiment with HepG2, 61.2 µM in the experiment on HCT-116 and 47.5 µM in the experiment on PANC-1.
On to `COc1ccc(-c2c(Nc3ccc(NC(C)=O)cc3)c3ccccc3oc2=O)cc1`, for which the IC50 in the experiment on MCF7 and in the experiment on HepG2 was above 100 µM each time.
In the case of `COc1ccc(-c2c(Nc3ccc4c(c3)OCO4)c3ccc(OC)cc3oc2=O)cc1`, the IC50 with MCF7 and in the experiment on HepG2 was above 100 µM throughout.
Regarding `COc1ccc(-c2c(Nc3ccc(C)cc3)c3ccccc3oc2=O)cc1`, the IC50 in the experiment on MCF7 was found to be 65.3 µM; with HepG2 it was 59.4 µM; with HCT-116 it was 64.8 µM; in the experiment on PANC-1, 66.1 µM.
As to `COc1ccc(Nc2c(C(=O)C(F)(F)F)c(=O)oc3ccc(OC)cc23)cc1`, the IC50 in the experiment with MCF7 and with HepG2 was above 100 µM throughout.
With `CCOc1ccc(Nc2c(-c3ccc(OC)cc3)c(=O)oc3cc(OC)ccc23)cc1`, the IC50 was 24.3 µM with MCF7, 31.2 µM in the experiment on HepG2, 33 µM with HCT-116 and 36.1 µM in the experiment on PANC-1.
For `COc1ccc(-c2c(Nc3cc(OC)c(OC)c(OC)c3)c3ccc(OC)cc3oc2=O)cc1`, the values for the IC50 in the experiment with MCF7 and in the experiment on HepG2 were 89.5 µM and 84.3 µM, respectively.
As for `COc1ccc(-c2c(Nc3ccc4c(c3)OCO4)c3ccccc3oc2=O)cc1`, the IC50 in the experiment with MCF7 and in the experiment with HepG2 was above 100 µM in each case.
On to `COc1ccc(-c2c(Nc3ccc(NC(C)=O)cc3)c3ccc(O)cc3oc2=O)cc1`, for which the IC50 with MCF7 and in the experiment on HepG2 was above 100 µM each time.
Take `COc1ccc(-c2c(Nc3ccc(C)cc3)c3ccc(O)cc3oc2=O)cc1`: the values for the 50% inhibitory concentration (IC50) in the experiment on MCF7 and in the experiment with HepG2 were 85.5 µM and 88.3 µM, respectively.
As for `CCOc1ccc(Nc2c(-c3ccc(OC)cc3)c(=O)oc3cc(O)ccc23)cc1`, the IC50 turned out to be 32.5 µM in the experiment on MCF7, 36.5 µM in the experiment with HepG2, 46.1 µM in the experiment on HCT-116 and 43.6 µM in the experiment on PANC-1.
For `COc1ccc2c(Nc3ccc(F)cc3)c(C(=O)C(F)(F)F)c(=O)oc2c1`, the IC50 with MCF7 is 9.74 µM; in the experiment on HepG2, 8.26 µM; in the experiment on HCT-116 it was 11.7 µM; with PANC-1 it was 12.2 µM.
Consider `O=c1[nH]cc(F)c(=O)[nH]1` [FLUOROURACIL], for which the IC50 with HCT-116 worked out at 38.3 µM; in the experiment on PANC-1 it was 47.8 µM.
For the molecule `COc1ccc2c(Nc3ccc4c(c3)OCO4)c(C(=O)C(F)(F)F)c(=O)oc2c1`, the IC50 was 37.4 µM in the experiment on MCF7, 10.5 µM with HepG2, 12.5 µM with HCT-116 and 15.8 µM in the experiment with PANC-1.
The corresponding values for `COc1ccc(-c2c(Nc3cccc(C(F)(F)F)c3)c3ccc(O)cc3oc2=O)cc1` are 49.1 µM, 53.6 µM, 55.9 µM and 67.2 µM.
The corresponding values for `COc1ccc2oc(=O)c(C(=O)C(F)(F)F)c(Nc3cc(OC)c(OC)c(OC)c3)c2c1` are 15 µM, 12.3 µM, 19.5 µM and 23.8 µM.
For `COc1ccc(-c2c(Nc3ccc(C)c(O)c3)c3ccccc3oc2=O)cc1`, in that order: 12.1 µM, 10.2 µM, 12.3 µM and 9.75 µM.
For the molecule `COc1ccc(-c2c(Nc3ccc4c(c3)OCO4)c3ccc(O)cc3oc2=O)cc1`, the IC50 is 89.5 µM with MCF7, 79 µM in the experiment with HepG2, 41.2 µM in the experiment on HCT-116 and 48.2 µM in the experiment with PANC-1.
For `CCOc1ccc(Nc2c(-c3ccc(OC)cc3)c(=O)oc3ccccc23)cc1`, in that order: 30.7 µM, 31.3 µM, 29.5 µM and 32.9 µM.
As to `COc1ccc2c(Nc3cc(OC)c(OC)c(OC)c3)c(C(=O)C(F)(F)F)c(=O)oc2c1`, the IC50 stood at 19.2 µM with MCF7, 26.4 µM in the experiment with HepG2, 17 µM in the experiment with HCT-116 and 24.1 µM with PANC-1.
For the molecule `COc1ccc(-c2c(Nc3ccc(F)cc3)c3ccc(OC)cc3oc2=O)cc1`, the IC50 with MCF7 and in the experiment on HepG2 was above 100 µM in each case.
As to `COc1ccc(Nc2c(-c3ccc(OC)cc3)c(=O)oc3cc(OC)ccc23)cc1`, the IC50 came to 39.2 µM in the experiment on MCF7, 39.6 µM in the experiment on HepG2, 35.1 µM in the experiment with HCT-116 and 41 µM in the experiment with PANC-1.
In the case of `COc1ccc(-c2c(Nc3cc(OC)c(OC)c(OC)c3)c3ccccc3oc2=O)cc1`, the IC50 in the experiment on MCF7 stood at 82.3 µM; with HepG2, 77.3 µM; in the experiment with HCT-116 it was 63.5 µM; in the experiment with PANC-1 it was 77.6 µM.
The corresponding values for `COc1ccc(-c2c(Nc3ccc(C)c(O)c3)c3ccc(OC)cc3oc2=O)cc1` are 34.4 µM, 22.5 µM, 26.5 µM and 31.3 µM.
The corresponding values for `COc1ccc(-c2c(Nc3ccc(F)cc3)c3ccc(O)cc3oc2=O)cc1` are 71.5 µM, 65.6 µM, 66.1 µM and 75 µM.
For the molecule `COc1ccc(-c2c(Nc3ccc(NC(C)=O)cc3)c3ccc(OC)cc3oc2=O)cc1`, the values for the IC50 in the experiment on MCF7 and in the experiment with HepG2 were 85.8 µM and above 100 µM, respectively.
For the molecule `COc1ccc(-c2c(Nc3ccc(C)cc3)c3ccc(OC)cc3oc2=O)cc1`, the IC50 turned out to be 66.9 µM with MCF7, 74.4 µM in the experiment with HepG2, 82.4 µM in the experiment with HCT-116 and 76.5 µM in the experiment with PANC-1.
The corresponding values for `COc1ccc(-c2c(Nc3cc(OC)c(OC)c(OC)c3)c3ccc(O)cc3oc2=O)cc1` are 56 µM, 49.6 µM, 64.2 µM and 63.9 µM.
For the molecule `COc1ccc2oc(=O)c(C(=O)C(F)(F)F)c(Nc3ccc(F)cc3)c2c1`, the IC50 with MCF7 and in the experiment with HepG2 was above 100 µM throughout.
As to `COc1ccc(-c2c(Nc3ccc(C)c(O)c3)c3ccc(O)cc3oc2=O)cc1`, the IC50 is above 100 µM in the experiment on MCF7 and above 75.3 µM in the experiment with HepG2.
On to `COc1ccc(Nc2c(-c3ccc(OC)cc3)c(=O)oc3ccccc23)cc1`, for which the half-maximal inhibitory concentration (IC50) is 34.6 µM in the experiment on MCF7, 35.2 µM in the experiment with HepG2, 36.6 µM with HCT-116 and 37.5 µM in the experiment on PANC-1.
For `COc1ccc(-c2c(Nc3ccc(F)cc3)c3ccccc3oc2=O)cc1`, in that order: 38.5 µM, 35.5 µM, 39.4 µM and 32 µM.
The corresponding values for `COc1ccc(-c2c(Nc3cccc(C(F)(F)F)c3)c3ccc(OC)cc3oc2=O)cc1` are 36.2 µM, 57.2 µM, 41.2 µM and 39.5 µM.
For `COc1ccc2oc(=O)c(C(=O)C(F)(F)F)c(Nc3ccc(C)c(O)c3)c2c1`, the IC50 is 20.1 µM with MCF7; 6.71 µM with HepG2; 4.62 µM with HCT-116; 5.62 µM in the experiment with PANC-1; 29.4 µM in the experiment with HUVEC. Besides, the “Ratio IC50” value in experiment [1] turned out to be 1.46; in experiment [2], 4.39; in experiment [3], 6.37; in experiment [4], 5.23.
With `COc1ccc(-c2c(Nc3cccc(C(F)(F)F)c3)c3ccccc3oc2=O)cc1`, the IC50 in the experiment on MCF7 came out at 21.6 µM; with HepG2 it was 66.4 µM; with HCT-116, 55.7 µM; in the experiment on PANC-1 it was 49.1 µM.
